This note sets out measurements from publication PMC9782245, “Synthesis and Structural Optimization of 2,7,9-Trisubstituted purin-8-ones as FLT3-ITD Inhibitors” (International Journal of Molecular Sciences, 2022).

Assay [1] concerns the target T1, Abl (Homo sapiens, UniProt P00519).
T1 construct: purchased Eurofins Discovery (France)
The experiment in a line: Kinase selectivity panel at 1 µM (Eurofins), Abl. The settings on record: read-out: residual enzyme activity Abl. It is filed as biochemical. The protocol: (§1) Three representative compounds (14d, 14e, and 15a) were profiled in a 1 µM concentration against 30 kinases that were selected as known off-targets of approved CDK4/6 inhibitors. […] Additional sensitive kinases include STK16, EphA1, MEKK2, SRC, and MER (≤10% of residual enzyme activities), which are not targets of the structurally similar CDK4/6 inhibitor, trilaciclib. We also screened compound 15a, an analogue of 14d, bearing isopropyl at position 7 of the purine instead of the methyl group. This change rapidly diminished the potency against CDK4 (dropped to 90% of residual enzyme activity), but the preference for FLT3 remained (1st rank) (Figure 2).
(§2) CDK/cyclin complexes and FLT3 kinases were assayed as previously described. Protein kinase selectivity was evaluated at a single concentration (1 µM) by screening against 30 enzymes at Eurofins Discovery (France).

In assay [2] the target is T2, TTK (Homo sapiens, UniProt P33981).
T2 construct: purchased Eurofins Discovery (France)
T2 sequence (P33981 1-857): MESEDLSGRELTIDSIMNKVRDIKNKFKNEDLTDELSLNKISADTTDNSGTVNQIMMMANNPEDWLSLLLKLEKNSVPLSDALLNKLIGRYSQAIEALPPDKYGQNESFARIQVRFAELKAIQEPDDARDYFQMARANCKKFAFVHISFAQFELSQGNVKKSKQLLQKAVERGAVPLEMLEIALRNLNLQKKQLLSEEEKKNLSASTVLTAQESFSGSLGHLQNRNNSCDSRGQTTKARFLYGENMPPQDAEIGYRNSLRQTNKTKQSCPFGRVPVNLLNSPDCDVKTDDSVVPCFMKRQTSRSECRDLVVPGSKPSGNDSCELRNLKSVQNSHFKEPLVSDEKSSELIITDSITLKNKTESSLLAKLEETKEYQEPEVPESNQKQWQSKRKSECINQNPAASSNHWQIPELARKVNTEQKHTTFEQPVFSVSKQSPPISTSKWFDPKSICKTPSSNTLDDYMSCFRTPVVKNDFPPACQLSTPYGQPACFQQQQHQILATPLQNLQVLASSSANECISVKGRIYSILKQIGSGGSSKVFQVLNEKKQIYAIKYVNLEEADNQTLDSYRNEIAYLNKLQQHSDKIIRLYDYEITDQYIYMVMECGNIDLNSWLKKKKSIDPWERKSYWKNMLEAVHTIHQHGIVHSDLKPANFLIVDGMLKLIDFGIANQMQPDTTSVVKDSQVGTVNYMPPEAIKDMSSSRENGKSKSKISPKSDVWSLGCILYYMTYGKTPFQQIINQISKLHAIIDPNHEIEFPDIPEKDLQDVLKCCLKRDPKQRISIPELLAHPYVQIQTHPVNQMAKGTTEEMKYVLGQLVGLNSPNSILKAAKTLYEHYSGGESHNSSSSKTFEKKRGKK
The experiment in a line: Kinase selectivity panel at 1 µM (Eurofins), TTK. Type of assay: biochemical. The settings on record: read-out: residual enzyme activity TTK. How it is done:
as §1, §2

T1 sequence (P00519 whole entry): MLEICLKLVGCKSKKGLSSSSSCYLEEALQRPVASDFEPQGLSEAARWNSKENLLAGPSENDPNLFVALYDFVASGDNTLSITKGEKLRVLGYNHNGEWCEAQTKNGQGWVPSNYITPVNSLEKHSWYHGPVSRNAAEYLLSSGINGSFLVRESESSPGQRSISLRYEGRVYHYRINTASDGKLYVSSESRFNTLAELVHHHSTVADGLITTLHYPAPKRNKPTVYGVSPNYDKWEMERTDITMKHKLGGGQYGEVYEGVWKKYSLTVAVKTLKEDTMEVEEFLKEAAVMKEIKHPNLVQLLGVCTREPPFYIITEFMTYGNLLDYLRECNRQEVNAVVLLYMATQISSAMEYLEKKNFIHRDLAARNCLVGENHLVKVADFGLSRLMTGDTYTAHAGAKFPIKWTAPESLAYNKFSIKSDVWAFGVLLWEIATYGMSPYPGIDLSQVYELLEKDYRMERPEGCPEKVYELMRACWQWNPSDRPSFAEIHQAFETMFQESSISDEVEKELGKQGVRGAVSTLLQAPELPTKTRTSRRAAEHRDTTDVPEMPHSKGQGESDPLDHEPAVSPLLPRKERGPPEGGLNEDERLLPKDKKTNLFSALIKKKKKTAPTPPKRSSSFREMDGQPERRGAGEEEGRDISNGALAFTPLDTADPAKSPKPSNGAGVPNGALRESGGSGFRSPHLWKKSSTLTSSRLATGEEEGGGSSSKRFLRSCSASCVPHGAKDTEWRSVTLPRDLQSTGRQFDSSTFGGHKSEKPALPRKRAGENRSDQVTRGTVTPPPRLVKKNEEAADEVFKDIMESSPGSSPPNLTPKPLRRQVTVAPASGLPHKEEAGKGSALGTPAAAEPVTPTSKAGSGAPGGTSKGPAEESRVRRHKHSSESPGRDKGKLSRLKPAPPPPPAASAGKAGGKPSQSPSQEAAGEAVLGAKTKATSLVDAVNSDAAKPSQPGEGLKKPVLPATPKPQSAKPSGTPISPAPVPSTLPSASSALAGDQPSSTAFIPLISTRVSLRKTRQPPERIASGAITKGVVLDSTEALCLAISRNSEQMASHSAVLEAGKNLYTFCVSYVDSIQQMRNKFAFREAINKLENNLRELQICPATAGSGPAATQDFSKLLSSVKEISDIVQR

Regarding `CC(C)n1c(=O)n(C2CCCC2)c2nc(Nc3ccc(N4CCNCC4)cc3)ncc21` [15a, 9-cyclopentyl-7-isopropyl-2-((4-(piperazin-1-yl)phenyl)amino)-7,9-dihydro-8H-purin-8-one], the remaining activity at 1 µM in assay [1] and in assay [2] was no more than 10% in each case.
